Experimental data as given in publication PMC11042245, “Discovery of novel SOS1 inhibitors using machine learning” (RSC Medicinal Chemistry, 2024).
Read-outs that look alike come from different tables or passages of the source. Values belong to the molecule of their own block, whether it stands above or below them.

Experiments:
SOS1 = conditions: cited from earlier work; for IC50: read-out: Actual IC50
KRAS G12C/SOS1 = target: T1, KRAS G12C/SOS1 (Homo sapiens, UniProt Q07889); assay: KRAS G12C/SOS1 PPI homogeneous time-resolved fluorescence (HTRF) assay; format: binding; conditions: for inhibition at 0.5 µg/mL / inhibition at 10 µg/mL / inhibition at 40 µg/mL / inhibition at 50 µg/mL: read-out: Inhibition rate (%); for inhibition at 25 µg/mL: read-out: Inhibition rate at 25 μg mL^−1 (%)
T1 construct: purchased Cytoskeleton (SOS1); AntibodySystem (KRAS G12C)
T1 sequence (Q07889 564-1049 limits assumed): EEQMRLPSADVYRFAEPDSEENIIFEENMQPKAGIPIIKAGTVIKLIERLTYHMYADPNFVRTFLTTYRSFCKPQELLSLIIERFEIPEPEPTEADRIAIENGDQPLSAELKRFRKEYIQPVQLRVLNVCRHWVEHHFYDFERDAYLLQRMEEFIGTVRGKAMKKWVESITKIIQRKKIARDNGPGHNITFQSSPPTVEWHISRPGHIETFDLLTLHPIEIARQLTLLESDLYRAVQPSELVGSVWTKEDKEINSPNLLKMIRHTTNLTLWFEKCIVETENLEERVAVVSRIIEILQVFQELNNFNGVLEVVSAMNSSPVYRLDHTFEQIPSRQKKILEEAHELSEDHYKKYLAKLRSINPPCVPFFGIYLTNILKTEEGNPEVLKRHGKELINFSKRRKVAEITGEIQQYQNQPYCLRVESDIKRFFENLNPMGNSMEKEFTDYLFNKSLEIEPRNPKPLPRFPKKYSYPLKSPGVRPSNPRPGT
Protocol: All the test compounds were provided by the CNCL (https://www.cncl.org.cn/). […] The percentage inhibition was calculated by comparison with the buffer control group. The IC50 value was calculated by GraphPad Prism software in inhibitor versus normalized response (variable slope) mode.

[1] = 10% reserved data (Table S3), ref ChEMBL database (version 31)
[2] = converted from μg mL^−1, read-out: IC50 calculated using the molecular weight of each compound
[3] = dose-response 0.5–50 μg mL^−1, read-out: IC50 (μg mL^−1)

SMILES: Cc1nc(N[C@H](C)c2cccc(C(F)(F)F)c2)c2cc([C@]3(O)CC[C@H](C(=O)N(C)C)CC3)ccc2n1 [CHEMBL4533487]
Actual pChEMBL (SOS1; [1]): 7.57

SMILES: COc1cc2nc(C)nc(N[C@H](C)c3cccc(C)c3)c2cc1-c1ccc(=O)[nH]c1 [CHEMBL4455684]
Actual pChEMBL (SOS1; [1]): 7.55

IC50 (KRAS G12C/SOS1; [2]): 53.7 µM
IC50 (KRAS G12C/SOS1; [3]): 53.7 µM
inhibition at 0.5 µg/mL (KRAS G12C/SOS1): 0.8 ± 1.1%
inhibition at 10 µg/mL (KRAS G12C/SOS1): 31.9 ± 2.8%
inhibition at 40 µg/mL (KRAS G12C/SOS1): 66.6 ± 0.1%
inhibition at 50 µg/mL (KRAS G12C/SOS1): 72.3 ± 2.7%
inhibition at 25 µg/mL (KRAS G12C/SOS1): 53.8 ± 1.6%
SMILES: CC(C)c1ccc(S(=O)(=O)Nc2cnc(N3CCCC3)c(C(=O)O)c2)cc1 [CL01545365]

SMILES: COCCN(C)C(=O)C1CCC(c2cc3c(N[C@H](C)c4cc(N)cc(C(F)(F)F)c4)nc(C)nc3cc2OC)CC1 (some centres unmarked) [CHEMBL4513254]
Actual pChEMBL (SOS1; [1]): 8.52

SMILES: COc1cc2nc(C)nc(N[C@H](C)c3cc(N)cc(C(F)(F)F)c3)c2cc1O[C@H]1CCN(C(C)=O)C1 [CHEMBL4435672]
Actual pChEMBL (SOS1; [1]): 8.52

SMILES: Cc1cccc([C@@H](C)Nc2nc(C)nc3ccc(C4CCOCC4)cc23)c1 [CHEMBL4583745]
Actual pChEMBL (SOS1; [1]): 7.37

SMILES: CC(=O)N[C@@H]1CCN(c2cc3c(NC(C)c4ccc(-c5ccccc5CN(C)C)s4)nc(C)nc3cn2)C1 (some centres unmarked) [CHEMBL4463000]
Actual pChEMBL (SOS1; Table 3): 7.82
IC50 (SOS1; Table 3): 0.015 µM

SMILES: COc1cc2nc(C)nc(N[C@H](C)c3cc(N)cc(C(F)(F)F)c3F)c2cc1C1CCC(C(=O)N(C)C)CC1 (some centres unmarked) [CHEMBL4572922]
Actual pChEMBL (SOS1; [1]): 7.46

SMILES: CONC(=O)CC(C)c1cc2c(N[C@H](C)c3cccc(C(F)(F)F)c3)nc(C)nc2cc1C (some centres unmarked) [CHEMBL4464090]
Actual pChEMBL (SOS1; [1]): 8.10

SMILES: CCn1ccc(-c2cc3c(N[C@H](C)c4cc(N)cc(C(F)(F)F)c4)nc(C)nc3cc2C)cc1=O [CHEMBL4551748]
Actual pChEMBL (SOS1; [1]): 8.30

IC50 (KRAS G12C/SOS1; [2]): 103 µM
IC50 (KRAS G12C/SOS1; [3]): 103 µM
inhibition at 0.5 µg/mL (KRAS G12C/SOS1): 1.5 ± 1.1%
inhibition at 10 µg/mL (KRAS G12C/SOS1): 14.5 ± 3.3%
inhibition at 40 µg/mL (KRAS G12C/SOS1): 45.5%
inhibition at 50 µg/mL (KRAS G12C/SOS1): 49.9 ± 0.5%
inhibition at 25 µg/mL (KRAS G12C/SOS1): 31.1 ± 1.4%
SMILES: Cc1ccc(S(=O)(=O)Nc2cnc(N3CC=C(c4ccccc4C)CC3)c(C(=O)O)c2)c(C)c1 [CL01545444]

SMILES: Cc1nc(N[C@H](C)c2cc(N)cc(C(F)(F)F)c2)c2cc([C@H]3CC[C@H](C(=O)N(C)C)CC3)c(C)cc2n1 [CHEMBL4554249]
Actual pChEMBL (SOS1; [1]): 8.70

inhibition at 25 µg/mL (KRAS G12C/SOS1): -6.5 ± 2.5%
SMILES: CC(C)c1cccc2cc3c(nc12)OCCN(CCc1ccc2c(c1)OCO2)C3 [CL01132463]

SMILES: COCC(=O)N1CCC(c2ccc3nc(C)nc(N[C@H](C)c4cc(N)cc(C(F)(F)F)c4)c3c2)CC1 [CHEMBL4469357]
Actual pChEMBL (SOS1; [1]): 8.70

inhibition at 25 µg/mL (KRAS G12C/SOS1): 2 ± 0.8%
SMILES: CCC(C)NC(=O)c1ccc(Cn2c(=O)c3cc(OC)c(OC)cc3n(Cc3ccccc3F)c2=O)cc1 (centres unmarked) [CL00817024]

SMILES: COCC(=O)N1CCC(c2cc3c(N[C@H](C)c4cccc(C)c4)nc(C)nc3cc2C)CC1 [CHEMBL4448274]
Actual pChEMBL (SOS1; [1]): 7.47

SMILES: COc1cc2nc(C)nc(N[C@H](C)c3cccc(C(F)(F)CO)c3)c2cc1C1=CCC(C(=O)N(C)C)CC1 (some centres unmarked) [CHEMBL4529467]
Actual pChEMBL (SOS1; [1]): 8.70

SMILES: Cc1nc(N[C@H](C)c2cc(N)cc(C(F)(F)F)c2)c2cc(-c3cnn(CC(=O)N(C)C)c3)ccc2n1 [CHEMBL4546387]
Actual pChEMBL (SOS1; [1]): 8.10

SMILES: COc1cc2nc(C)nc(N[C@H](C)c3cccc(C(F)(F)F)c3)c2cc1-c1ccc(C(=O)N(C)CCO)cc1 [CHEMBL4453639]
Actual pChEMBL (SOS1; [1]): 7.40

SMILES: Cc1nc(N[C@H](C)c2cccc(C(F)(F)F)c2)c2cc(-c3cc4n(n3)CCC(=O)N4)ccc2n1 [CHEMBL4570224]
Actual pChEMBL (SOS1; [1]): 7.52

SMILES: Cc1cccc([C@@H](C)Nc2nc(C)nc3cc(C)c(-c4ccc(=O)n(C)c4)cc23)c1 [CHEMBL4473214]
Actual pChEMBL (SOS1; [1]): 7.44

inhibition at 25 µg/mL (KRAS G12C/SOS1): 25.3 ± 0.3%
SMILES: CCOCCCN(C)C1CCN(c2ncc(NC(=O)c3ccc(C)cc3)cc2C(=O)O)CC1 [CL00838284]

SMILES: Cc1cccc([C@@H](C)Nc2nc(C)nc3ccc([C@H]4CC[C@H](C(=O)N5CC(C#N)C5)CC4)cc23)c1 [CHEMBL4463184]
Actual pChEMBL (SOS1; [1]): 7.44

SMILES: COc1cc2nc(C)nc(N[C@H](C)c3cc(N)cc(C(F)(F)F)c3F)c2cc1O[C@H]1CCOC1 [CHEMBL4572076]
Actual pChEMBL (SOS1; [1]): 8.30

SMILES: CC(=O)N1CCC(O)(c2ccc3nc(C)nc(N[C@H](C)c4cccc(C)c4)c3c2)CC1 [CHEMBL4524954]
Actual pChEMBL (SOS1; [1]): 7.85

SMILES: Cc1nc(N[C@H](C)c2cc(N)cc(C(F)(F)F)c2)c2cc(C3CCC(C(=O)N4CCOCC4)CC3)ccc2n1 (some centres unmarked) [CHEMBL4540213]
Actual pChEMBL (SOS1; [1]): 8.70

SMILES: Cc1cccc([C@@H](C)Nc2nc(C)nc3ccc(C4CCS(=O)(=O)CC4)cc23)c1 [CHEMBL4443395]
Actual pChEMBL (SOS1; [1]): 7.54

SMILES: COc1cc2nc(C)nc(N[C@H](C)c3cc(N)cc(C(F)(F)F)c3)c2cc1C1CCC(C(=O)N2CCOCC2)CC1 (some centres unmarked) [CHEMBL4451252]
Actual pChEMBL (SOS1; [1]): 7.60

SMILES: COc1cc2nc(C)nc(N[C@H](C)c3cccc(C(F)(F)F)c3)c2cc1OC [CHEMBL5084571]
Actual pChEMBL (SOS1; Table 3): 6.97
IC50 (SOS1; Table 3): 0.106 µM

SMILES: COc1cc2nc(C)nc(N[C@H](C)c3ccccc3)c2cc1OC [CHEMBL5087955]
Actual pChEMBL (SOS1; Table 3): 6.34
IC50 (SOS1; Table 3): 0.453 µM

SMILES: COc1cc2nc(C)nc(N[C@H](C)c3cccc(S(N)(=O)=O)c3)c2cc1OC [CHEMBL5085531]
Actual pChEMBL (SOS1; Table 3): 7.25
IC50 (SOS1; Table 3): 0.056 µM

SMILES: COc1cc2nc(C)nc(N[C@H](C)c3cccc(C(F)(F)F)c3F)c2cc1C1(O)CCC(C(=O)N(C)C)CC1 (some centres unmarked) [CHEMBL4459389]
Actual pChEMBL (SOS1; [1]): 8.30

IC50 (KRAS G12C/SOS1; [2]): 94.6 µM
IC50 (KRAS G12C/SOS1; [3]): 94.6 µM
inhibition at 0.5 µg/mL (KRAS G12C/SOS1): -1.6 ± 0.2%
inhibition at 10 µg/mL (KRAS G12C/SOS1): 17.9 ± 3.3%
inhibition at 40 µg/mL (KRAS G12C/SOS1): 53.3 ± 0.5%
inhibition at 50 µg/mL (KRAS G12C/SOS1): 61.6 ± 4%
inhibition at 25 µg/mL (KRAS G12C/SOS1): 38 ± 3.3%
SMILES: Cc1ccc(S(=O)(=O)Nc2cnc(N3CCCC3)c(C(=O)O)c2)c(C)c1 [CL01545355]

SMILES: CCOc1cc2c(N[C@H](C)c3ccc(F)cc3)nc(C)nc2cn1 [CHEMBL4456281]
Actual pChEMBL (SOS1; Table 3): 5.03
IC50 (SOS1; Table 3): 9.3 µM

SMILES: Cc1nc(N[C@H](C)c2cc(N)cc(C(F)(F)F)c2C)c2cc(C3CCS(=O)(=O)CC3)ccc2n1 [CHEMBL4441820]
Actual pChEMBL (SOS1; [1]): 8.40

SMILES: Cc1nc(N[C@H](C)c2cccc(C(F)F)c2F)c2cc3c(cc2n1)OC[C@H]1CN(C(=O)C2(C#N)CC2)CCN31 [compound 37]
Actual pChEMBL value (SOS1; external validation data): 8.33

SMILES: Cc1nc(N[C@H](C)c2cc(N)cc(C(F)(F)F)c2)c2cc(C3CCN(C(=O)CN(C)C)CC3)ccc2n1 [CHEMBL4539190]
Actual pChEMBL (SOS1; [1]): 8.52

SMILES: Cc1cccc([C@@H](C)Nc2nc(C)nc3ccc(C4CC[S+]([O-])CC4)cc23)c1 (some centres unmarked) [CHEMBL4561965]
Actual pChEMBL (SOS1; [1]): 7.66

SMILES: COc1cc2nc(C)nc(N[C@H](C)c3cccc(C(F)(F)F)c3)c2cc1-c1ccc(C(=O)N(C)C)cn1 [CHEMBL4515122]
Actual pChEMBL (SOS1; [1]): 7.46

IC50 (KRAS G12C/SOS1; [2]): 66.3 µM
IC50 (KRAS G12C/SOS1; [3]): 66.3 µM
inhibition at 0.5 µg/mL (KRAS G12C/SOS1): 3.4 ± 1.8%
inhibition at 10 µg/mL (KRAS G12C/SOS1): 24.2 ± 1.4%
inhibition at 40 µg/mL (KRAS G12C/SOS1): 55.3 ± 3.2%
inhibition at 50 µg/mL (KRAS G12C/SOS1): 60.5 ± 4%
inhibition at 25 µg/mL (KRAS G12C/SOS1): 42.9 ± 3.4%
SMILES: Cc1ccccc1C1=CCN(c2ncc(NS(=O)(=O)c3ccc(C(C)C)cc3)cc2C(=O)O)CC1 [CL01545464]

SMILES: CCOc1cc2c(N[C@H](C)c3ccccc3)nc(C)nc2cn1 [CHEMBL4545109]
Actual pChEMBL (SOS1; Table 3): 5.69
IC50 (SOS1; Table 3): 2.06 µM
